Measurements from patent US20250354192A1, “METHODS FOR QUANTIFYING LIVE BACTERIA” (priority 2022, published 2025).

Experiments:
Assay type in all cases: cell-based
[1] = test system: innate live bacterial populations in whole carcass rinsates; test: 3-step metabolic labeling of whole carcass rinsates with or without EDA, PIPER; conditions: two whole carcass rinsate samples
Experimental: Experimental Detail: Whole carcass rinsate samples were prepared as per FSIS USDA guidance using two separate whole chickens from the grocery store obtained prior to “use by” date. Sodium polyanethol sulfonate was added to 0.05% to limit blood clotting. Prior to 3-step metabolic labeling, an aliquot from each rinsate was removed for serial dilution and plating on APC petrifilm (3M, Saint Paul, MN) and incubated as per manufacturer instructions to evaluate the number of total viable bacteria by the “gold standard” method. 1 mL rinsate aliquots were used for incubation with, or without EDA, as a control for non-specific staining with the fluorophore. The 1st step of labeling was carried out by adding 5 μg/mL chloramphenicol and 1 mM EDA, where indicated, followed by 90 min incubation at 37° C. […]
FIG. 25 depicts how 3-step metabolic labeling detects innate live bacterial populations in whole carcass rinsates. FIG. 25A depicts PIPER images of innate populations of live bacteria detected by 3-step metabolic labeling in two separate whole carcass rinsate samples. […] To convert the PIPER counts into the number of live bacteria per swab, the values were corrected for the volume of the viewing window relative to the total sample volume loaded into the cartridge lane, and the fraction of the total sample volume analyzed.

[2] = test system: Salmonella Typhimurium and Klebsiella pneumoniae; test: Two-step CLICK labeling with or without EDA, PIPER non-capture assay; conditions: 1 mM EDA, last 30 min of incubation; 25 μM CF488 picolyl azide
Experimental: FIG. 7 depicts both components of the two-step CLICK reaction are required for cell labeling. Salmonella Typhimurium (top panel) and Klebsiella pneumoniae (bottom panel) were grown overnight at 37° C. The next day, cells were diluted into fresh media and grown until they reached log-phase. The last 30 min of incubation were carried out in the presence or absence of 1 mM of EDA (D-propargylglycine, AK Scientific, Union City, CA). Cells were harvested by centrifugation (10 min 10,000 g), and supernatant was discarded. Bacteria were then washed, fixed by incubation with 4% paraformaldehyde, pelleted by centrifugation (10 min 10,000 g), and supernatant was discarded. […] An automated bacterial image recognition algorithm determined labeled cell counts (graphs).

Pseudomonas = test: Two-step labeling with EDA versus NADA-Green, PIPER counts relative to SYBR labeling; conditions: 1 mM EDA 30 minutes plus click reaction solution, compared with 1 mM NADA-Green 60-90 minutes
Source text: Universal labeling of all bacteria presents some challenges. D-amino acid analogs must first penetrate the outer membrane of gram-negative bacteria to be incorporated into peptidoglycan. The smaller size of the “clickable” D-amino acids compared to the FDAAs helps achieve higher labeling efficiency for some gram-negative bacteria. Accordingly, and for example, FIGS. 11A-B depict two-step labeling using the “clickable” D-amino acid, EDA, which improves detection of Pseudomonas. Log phase Pseudomonas growing at 37° C. in BHI (with [Supplemented BHI, red bars] or without [blue bars] supplementation with 50 mM glucose and 10 mM sodium pyruvate) was incubated for 60-90 minutes with 1 mM NADA-Green (Bio-Techne, Minneapolis, MN); or for 30 minutes in the presence or absence of 1 mM clickable D-amino acid, EDA (D-propargylglycine, AK Scientific, Union City, CA). For the unlabeled cells or cells labeled with NADA-Green, the cells were pelleted after incubation and resuspended in 1×PBS. For the cells grown in the presence or absence of EDA, the cells were pelleted after incubation by centrifugation (10 min 10,000 g), and supernatant was discarded. Bacteria were washed with 1 mL of 1× PBS, pelleted by centrifugation again (10 min 10,000 g), and supernatant was discarded. […]

C#CC[C@@H](N)C(=O)O [EDA, D-propargylglycine]
signal on omitting EDA from the 1st step of labeling [1]: dramatic reduction of the signal | signal of click labeling in the presence or absence of EDA [2]: No signal is observed when the click reagents are added in the absence of EDA | detection efficiency, cell counts relative to counts obtained by SYBR labeling (Pseudomonas): Highest detection efficiency
